Laboratory results from patent US20220264878A1, “HERBICIDAL COMPOSITION CONTAINING R-TYPE PYRIDYLOXY CARBOXYLIC ACID DERIVATIVE AND USE THEREOF” (Qingdao Kingagroot Chemical Compound Co., Ltd., priority 2019, published 2022).

How the values were obtained:
[1] = tested on: Echinochloa crusgalli var. zelayensis; assay: Soil sealing treatment, pot culture, fresh weight inhibition (Tables 49, 50); format: in vivo
Experimental: (§1) A method for investigating absolute number was employed, wherein whole seedlings of survival weeds were cut off with a blade along the soil surface, and the fresh weight of the weeds was weighed with an analytical balance. For dead weeds, the fresh weight thereof was zero.
Theoretical fresh weight inhibition rate of a combination of two active ingredients in each group was calculated by the Gowing method (E0=X+Y−X*Y/100), and then compared with an actually measured inhibition rate (E), thereby effect of the combination (hereafter referred to as combined effect) on weeds was evaluated: the value of E-E0, which was greater than 10%, corresponded to a synergistic effect, the value of E-E0, which was less than −10%, corresponded to an antagonistic effect, and the value of E-E0, which was from −10% to 10%, corresponded to an additional effect. […] Wherein, in the formula, X represented the fresh weight inhibition rate of the active ingredient A in a dosage of P, and Y represented the fresh weight inhibition rate of the active ingredient B in a dosage of Q.
Echinochloa crusgalli var zelayensis were collected in Huai'an of Jiangsu Province; Echinochloa caudate were collected in Pingluo of Ningxia Province; Echinochloa oryzoides were collected in Qiqiha'er of Heilongjiang Province.
The culture was carried out in a controllable sunlight greenhouse at 20 to 30° C., in natural light, and relative humidity of 57% to 72%. […] The test soil was placed quantitatively to ¾ of the pots and then watered from the bottom of the pots to completely wet the soil to saturation. The pretreated test weed seeds were uniformly sowed on the surface, then covered with 0.5-2 cm soil according to the seed size, and ready-for use 24 hours after sowing.
The technical materials were all dissolved in acetone, and diluted with an aqueous solution containing 0.1% emulsifier T-80. The dilution is performed as required.
A ratio of A to the active ingredient B and amounts thereof in each group depends on the characteristics and toxicity of the two agents, as well as the main application purpose of a corresponding formulation. Based on the pre-tests in this study, the dosage of A and the active ingredient B applied alone and in combination were shown in the tables. Water containing the solvent and emulsifier same with the above groups but free of the agents was used as a blank control.
3 pots with 30 weed seeds per pot were treated in one treatment with 4 replications per treatment.
(§2) The pots which were sowed and mulched were evenly placed on a platform with an area of 0.5 m^2, and a solution of agents was sprayed on soil surface thereof by the 3WP-2000-type walking spray tower at a dosage of 675 kg/ha and at a spray pressure of 0.3 MPa. After all the solution was sprayed, the valve was closed. After 30 seconds, the door of the spray tower was opened, and the nutritional bowl was taken out. Then the valve was opened, and the spray tube was cleaned by spraying 50 ml of water.
This section was same as the section 4) in the post-emergence treatment by performing foliage spray, and was not repeated herein.

[2] = tested on: Conyza Canadensis; assay: Post-emergence foliage spray on Conyza Canadensis with a height of 10 cm, fresh weight inhibition (Tables 207-216; 24 days); format: in vivo; settings: 24 days after treatment
Experimental: The above weeds were cultivated by a pot culture method. […] Full and uniform weed seeds were selected, soaked in warm water at 25° C. for 6 hours, and germinated in a 28° C. biochemical incubator (darkness). The weed seeds that had just germinatedwere evenly placed on the surface of the soil and then covered with 0.5-1 cm soil according to the sizes of seeds.
The technical materials were all dissolved in acetone, and diluted with an aqueous solution containing 0.1% emulsifier Tween-80. The dilution is performed as required.
A ratio of the active ingredient A to the active ingredient B and amounts thereof in each group depends on the characteristics and toxicity of the two agents, as well as the main application purpose of a corresponding formulation. Based on the pre-tests in this study, the dosage of the active ingredient A and B applied alone and in combination were shown in the tables. Water containing the solvent and emulsifier same with the above groups but free of the agents was used as a blank control.
In the stage of weeds with 6˜8 leaves, the weeds were thinned out to maintain 3 weeds per pot and 30 weeds for each treatment, then continued to be cultured to Conyza Canadensis with a height of 10 cm, and treated.
as §2, with “well-cultured weeds” for “pots which were sowed and mulched”, “the stems and leaves” for “soil surface”, “450” for “675”
A pot-culture method was employed. For the cultivation of weeds, please refer to the Section 1.1), and “Pesticide guidelines for laboratory bioactivity tests—herbicides”. As to a method for applying agents, please refer to the section 2.3.2), that is, a foliage treatment was employed. After the treatment, the weeds were routinely cultured in a greenhouse.
as §1
Wherein, in the formula, X represented the fresh weight inhibition rate of the active ingredient A in a dosage of P, and Y represented the fresh weight inhibition rate of the active ingredient B in a dosage of Q.

C[C@@H](Oc1nc(F)c(Cl)c(N)c1Cl)C(=O)OCC1CCCO1 (stereo partly shown) [Compound A2]
Control effect (%) of A applied alone in corresponding dose ([1]; A2 75 g a.i./ha): 21.4%
Control effect (%) of A applied alone in corresponding dose ([1]; A2 150 g a.i./ha): 45.2%
Control effect (%) of A applied alone in corresponding dose ([2]; A alone 60 g a.i./ha): 22.6%
Control effect (%) of A applied alone in corresponding dose ([2]; A alone 120 g a.i./ha): 47.9%
